# Laboratory results as given in US7300939B2, “Substituted 1-propiolylpiperazine compounds, their preparation and use” (Gruenenthal GmbH, priority 2005, dated 2007).
# pIC50: −log10 of the molar value. Structures can show the parent of a compound that is named as a salt.
# Target: T1, mGluR5 receptor (Sus scrofa, UniProt I3LUI7)
# T1 construct: from tissue; host or cells: pig brain halves without medulla, cerebellum and pons
# Test: [3H]-MPEP binding in the mGluR5 receptor binding assay (pig brain homogenate)
# Conditions: for mGluR5-receptor (% inhibition 10 μM) in pigs: pig brain homogenate, 5 nM [3H]-MPEP; for pIC50: Table II, unit inferred
# Description: I. Method the Determination of the Inhibition of the [^3H]-MPEP Binding in the mGluR5 Receptor Binding Assay
# Pig brain homogenate is prepared by homogenization (Polytron PT 3000, Kinematica AG, 10,000 revolutions per minute 90 seconds) of pig brain halves without medulla, cerebellum and pons in a buffer solution having a pH of 8.0 (30 mM of hepes, Sigma, order no. H3375+1 tablet of Complete to 100 ml, Roche Diagnostics, order no. 1836145) in a ratio of 1:20 (brain weight/volume) and differential centrifugation at 900×g and 40,000×g. In each case 450 μg of protein from brain homogenate are incubated with 5 nM [^3H]-MPEP (Tocris, order no. R1212) (MPEP=2-methyl-6-(3-methoxyphenyl)ethynylpyridine) and the compounds to be investigated (10 μM in the test) in a buffer solution (as above) in 250 μl incubation batches in 96-well microtiter plates at room temperature 60 min.
# Thereafter, the batches are filtered with the aid of a Brandel cell harvester (Brandel, Robotic 9600 model) onto Unifilter plates with glass fiber filter mats (Perkin Elmer, order no. 6005177) and then rinsed with buffer solution (as above) 3 times with 250 μl per sample each time. The filter plates are then dried 60 min at 55° C. 30 μl Ultima Gold™ scintillator (Packard BioScience, order no. 6013159) are subsequently added per well and, after 3 hours, the samples are measured on a β-counter (Mikrobeta, Perkin Elmer). The non-specific binding is determined by addition of 10 μM of MPEP (Tocris, order no. 1212).
# T1 sequence (I3LUI7 19-1212): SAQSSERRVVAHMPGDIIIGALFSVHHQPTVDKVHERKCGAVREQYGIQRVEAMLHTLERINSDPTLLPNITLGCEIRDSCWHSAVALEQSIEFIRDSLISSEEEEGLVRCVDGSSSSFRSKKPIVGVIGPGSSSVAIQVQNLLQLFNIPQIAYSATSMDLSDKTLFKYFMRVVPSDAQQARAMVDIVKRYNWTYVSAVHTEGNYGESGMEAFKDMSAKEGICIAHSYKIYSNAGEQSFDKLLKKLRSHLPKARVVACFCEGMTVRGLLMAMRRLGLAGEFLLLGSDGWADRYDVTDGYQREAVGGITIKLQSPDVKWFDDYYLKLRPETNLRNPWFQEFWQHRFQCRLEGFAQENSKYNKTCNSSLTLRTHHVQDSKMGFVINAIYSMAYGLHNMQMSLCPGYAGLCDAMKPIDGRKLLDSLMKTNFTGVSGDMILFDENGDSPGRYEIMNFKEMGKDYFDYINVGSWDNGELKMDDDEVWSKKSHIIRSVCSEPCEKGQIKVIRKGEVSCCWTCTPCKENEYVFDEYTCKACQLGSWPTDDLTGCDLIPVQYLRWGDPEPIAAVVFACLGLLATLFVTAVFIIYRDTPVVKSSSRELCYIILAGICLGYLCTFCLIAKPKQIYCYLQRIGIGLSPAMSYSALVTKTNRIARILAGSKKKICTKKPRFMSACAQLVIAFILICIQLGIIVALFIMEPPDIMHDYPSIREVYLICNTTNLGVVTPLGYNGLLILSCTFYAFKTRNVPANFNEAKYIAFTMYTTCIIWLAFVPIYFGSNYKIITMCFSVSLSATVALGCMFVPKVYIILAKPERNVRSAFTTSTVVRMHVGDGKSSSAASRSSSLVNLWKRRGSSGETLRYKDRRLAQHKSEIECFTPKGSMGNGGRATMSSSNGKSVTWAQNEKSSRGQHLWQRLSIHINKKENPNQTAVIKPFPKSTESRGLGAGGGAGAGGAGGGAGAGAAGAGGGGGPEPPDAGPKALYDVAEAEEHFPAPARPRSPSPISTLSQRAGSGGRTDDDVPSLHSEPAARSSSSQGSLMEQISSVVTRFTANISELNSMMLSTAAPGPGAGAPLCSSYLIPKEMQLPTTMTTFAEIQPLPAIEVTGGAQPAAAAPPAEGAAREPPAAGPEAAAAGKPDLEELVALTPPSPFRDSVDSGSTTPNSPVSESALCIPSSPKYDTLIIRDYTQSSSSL
SMILES,mGluR5-receptor (% inhibition 10 μM) in pigs [%],pIC50
"O=C(C#Cc1ccccc1)N1CCN(c2nccs2)CC1c1ccccc1 (centres unmarked) [Example AAA72, 2-Phenyl-4-(thiazol-2-yl)-1-(3-phenylpropiolyl)piperazine]",81,–
"O=C(C#Cc1ccccc1)N1CCN(c2ncc(Cl)s2)CC1 [Example AAA95, 4-(5-Chlorothiazol-2-yl)-1-(3-phenylpropiolyl)piperazine]",58,–
"O=C(C#Cc1cccc(C(F)F)c1)N1CCN(c2nccs2)CC1 [Example AAA00122, 4-(Thiazol-2-yl)-1-(3-(3-difluoromethylphenyl)propiolyl)piperazine]",–,7.21
"N#Cc1cc(C#CC(=O)N2CCN(c3nccs3)CC2)ccc1F [Example AAA41, 4-(Thiazol-2-yl)-1-(3-(3-cyano-4-fluorophenyl)propiolyl)piperazine]",78,–
"C[C@@H]1CN(c2nccs2)C[C@H](C)N1C(=O)C#Cc1ccccc1 [Example AAA75, cis-2,6-Dimethyl-4-(thiazol-2-yl)-1-(3-phenylpropiolyl)piperazine]",97,–
"C[S+]([O-])c1cccc(C#CC(=O)N2CCN(c3nccs3)CC2)c1 (centres unmarked) [Example AAA00115, 4-(Thiazol-2-yl)-1-(3-(3-methylsulfinylphenyl)propiolyl)piperazine]",17,–
"CC1CN(c2nccs2)CCN1C(=O)C#Cc1cccc(Cl)c1 (centres unmarked) [AAA00119, 2-Methyl-4-(thiazol-2-yl)-1-(3-(3-chlorophenyl)propiolyl)piperazine]",–,8.05
"O=C(C#Cc1ccccc1F)N1CCN(c2nc(-c3ccccc3)ns2)CC1 [CCC3, 4-(3-Phenyl-1,2,4-thiadiazol-5-yl)-1-(3-(2-fluorophenyl)propiolyl)piperazine]",28,–
"N#Cc1cccc(C#CC(=O)N2CCN(c3nccs3)CC2)c1 [Example AAA16, 4-(Thiazol-2-yl)-1-(3-(3-cyanophenyl)propiolyl)piperazine]",93,–
"CS(=O)(=O)c1cccc(C#CC(=O)N2CCN(c3nccs3)CC2)c1 [Example AAA00116, 4-(Thiazol-2-yl)-1-(3-(3-methylsulfonylphenyl)propiolyl)piperazine]",31,–
"O=C(C#Cc1cccc(C(F)(F)F)c1)N1CCN(c2nccs2)CC1 [Example AAA58, 4-(Thiazol-2-yl)-1-(3-(3-trifluoromethylphenyl)propiolyl)piperazine hydrochloride]",–,6.62
"O=C(C#Cc1cccc(-c2ccccc2)c1)N1CCN(c2nccs2)CC1 [Example AAA37, 4-(Thiazol-2-yl)-1-(3-biphenyl-3-ylpropiolyl)piperazine]",45,–
"O=C(C#Cc1ccco1)N1CCN(c2nccs2)CC1 [Example AAA73, 4-(Thiazol-2-yl)-1-(3-(2-furyl)propiolyl)piperazine]",74,–
"Nc1ccc(C#CC(=O)N2CCN(c3nccs3)CC2)cc1 [Example AAA8, 4-(Thiazol-2-yl)-1-(3-(4-aminophenyl)propiolyl)piperazine]",65,–
"COc1cccc(C#CC(=O)N2CCN(c3nccs3)CC2)c1 [Example AAA13, 4-(Thiazol-2-yl)-1-(3-(3-methoxyphenyl)propiolyl)piperazine]",87,–
"CNC(=O)c1cnc(N2CCN(C(=O)C#Cc3ccccc3)CC2)s1 [Example AAA80, 4-(5-Methylaminocarbonylthiazol-2-yl)-1-(3-phenylpropiolyl)piperazine]",76,–
"O=C(C#Cc1ccccc1)N1CCN(c2nc(C(F)(F)F)cs2)CC1 [Example AAA93, 4-(4-Trifluoromethylthiazol-2-yl)-1-(3-phenylpropiolyl)piperazine]",52,–
"O=C(C#Cc1ccncc1)N1CCN(c2nccs2)CC1 [Example AAA34, 4-(Thiazol-2-yl)-1-(3-pyrid-4-ylpropiolyl)piperazine]",71,–
"CCOC(=O)c1cccc(C#CC(=O)N2CCN(c3nccs3)CC2)c1 [Example AAA3, 4-(Thiazol-2-yl)-1-(3-(3-carboxyphenyl)propiolyl)piperazine ethyl ester]",40,–

SMILES,mGluR5-receptor (% inhibition 10 μM) in pigs [%],pIC50
"Nc1cccc(C#CC(=O)N2CCN(c3nccs3)CC2)c1 [Example AAA7, 4-(Thiazol-2-yl)-1-(3-(3-aminophenyl)propiolyl)piperazine]",91,–
"Cl.O=C(C#Cc1ccccc1C(F)(F)F)N1CCN(c2nccs2)CC1 [Example AAA57, 4-(Thiazol-2-yl)-1-(3-(2-trifluoromethylphenyl)propiolyl)piperazine hydrochloride]",81,–
"Cn1ccc2ccc(C#CC(=O)N3CCN(c4nccs4)CC3)cc21 [Example AAA00108, 4-(Thiazol-2-yl)-1-(3-(1-Methyl-indol-6-yl)propiolyl)piperazine]",–,5.91
"O=C(C#Cc1ccccn1)N1CCN(c2nccs2)CC1 [Example AAA32, 4-(Thiazol-2-yl)-1-(3-pyrid-2-ylpropiolyl)piperazine]",57,–
"CCOC(=O)c1csc(N2CCN(C(=O)C#Cc3ccccc3)CC2)n1 [Example AAA77, 4-(4-Carboxy-thiazol-2-yl)-1-(3-phenylpropiolyl)piperazine ethyl ester]",89,–
"CS(=O)(=O)c1nsc(N2CCN(C(=O)C#Cc3ccccc3)CC2)n1 [Example AAA00101, 4-(3-Methansulfonyl-1,2,4-thiadiazol-5-yl)-1-(3-phenylpropiolyl)piperazine]",30,–
"O=C(C#Cc1cccc(F)c1)N1CCN(c2nccs2)CC1 [Example AAA22, 4-(Thiazol-2-yl)-1-(3-(3-fluorophenyl)propiolyl)piperazine]",86,–
"Cc1noc(-c2cnc(N3CCN(C(=O)C#Cc4ccccc4)CC3)s2)n1 [Example AAA00106, 4-(5-(3-Methyl-1,2,4-oxadiazol-5-yl)thiazol-2-yl)-1-(3-phenylpropiolyl)piperazine]",68,–
"O=C(C#Cc1cccnc1)N1CCN(c2nccs2)CC1 [Example AAA33, 4-(Thiazol-2-yl)-1-(3-pyrid-3-ylpropiolyl)piperazine]",50,–
"O=C(C#Cc1cccc(F)c1)N1CCN(c2nc(-c3ccccc3)ns2)CC1 [CCC4, 4-(3-Phenyl-1,2,4-thiadiazol-5-yl)-1-(3-(3-fluorophenyl)propiolyl)piperazine]",59,–
"Cc1csc(N2CCN(C(=O)C#Cc3ccccc3)CC2)n1 [Example AAA92, 4-(4-Methylthiazol-2-yl)-1-(3-phenylpropiolyl)piperazine]",87,–
"Cc1cccc(C#CC(=O)N2CCN(c3nccs3)CC2C)c1.Cl (centres unmarked) [Example AAA67, 2-Methyl-4-(thiazol-2-yl)-1-(3-(3-tolyl)propiolyl)piperazine hydrochloride]",94,–
"O=C(C#Cc1ccccc1)N1CCN(c2ncc(Br)s2)CC1 [Example AAA96, 4-(5-Bromothiazol-2-yl)-1-(3-phenylpropiolyl)piperazine]",–,6.44
"O=C(C#Cc1ccsc1)N1CCN(c2nccs2)CC1 [Example AAA11, 4-(Thiazol-2-yl)-1-(3-(3-thienyl)propiolyl)piperazine]",52,–
"CSc1cccc(C#CC(=O)N2CCN(c3nccs3)CC2)c1 [Example AAA40, 4-(Thiazol-2-yl)-1-(3-(3-methylmercaptophenyl)propiolyl)piperazine]",80,–
"O=C(C#Cc1ccccc1)N1CCN(c2nc(Cl)cs2)CC1 [Example AAA94, 4-(4-Chlorothiazol-2-yl)-1-(3-phenylpropiolyl)piperazine]",91,–
"Cc1ccc(C#CC(=O)N2CCN(c3ncc(C)s3)CC2)cc1 [CCC33, 4-(5-Methylthiazol-2-yl)-1-(3-(tol-4-yl)propiolyl)piperazine]",43,–
"Nc1ccccc1C#CC(=O)N1CCN(c2nccs2)CC1 [Example AAA6, 4-(Thiazol-2-yl)-1-(3-(2-aminophenyl)propiolyl)piperazine]",54,–
"Cc1ccc(C#CC(=O)N2CCN(c3nccs3)CC2)cc1.Cl [Example AAA55, 4-(Thiazol-2-yl)-1-(3-(4-tolyl)propiolyl)piperazine hydrochloride]",41,–
